In patent US20210255193A1, “LYSINE REACTIVE PROBES AND USES THEREOF” (The Scripps Research Institute, priority 2017, published 2021):
Values belong to the compound of their own block, whether it stands above or below them.

Columns and labels:
Test in all cases: competitive isoTOP-ABPP
Type in all cases: binding
[1] = molecular target: T1, CPOX Coproporphyrinogen-III oxidase, mitochondrial (Homo sapiens, UniProt P36551); parameters: key to isoTOP-ABPP reactivity ratio at lysine P36551_K404: R = MS1 peak area ratio, DMSO (heavy) / compound-treated (light); settings: for R value (DMSO/fragment) for probe 1 labeling: P36551_K404; for R value (DMSO/fragment) for probe 1 labeling / isoTOP-ABPP reactivity ratio at lysine P36551_K404 / isoTOP-ABPP ratio (R) at liganded lysine P36551_K404: 50 uM, in vitro; for R value (DMSO/fragment) for probe 1 labeling / isoTOP-ABPP reactivity ratio at lysine P36551_K404: 231 sol; for isoTOP-ABPP ratio (R) at liganded lysine P36551_K404: sol, 231
T1 construct: isoTOP-ABPP experiments performed in cell lysates (in vitro); endogenous in cells; host or cells: soluble proteome of human cancer cell lines (MDA-MB-231; Ramos and Jurkat also prepared)
T1 sequence (P36551 111-454): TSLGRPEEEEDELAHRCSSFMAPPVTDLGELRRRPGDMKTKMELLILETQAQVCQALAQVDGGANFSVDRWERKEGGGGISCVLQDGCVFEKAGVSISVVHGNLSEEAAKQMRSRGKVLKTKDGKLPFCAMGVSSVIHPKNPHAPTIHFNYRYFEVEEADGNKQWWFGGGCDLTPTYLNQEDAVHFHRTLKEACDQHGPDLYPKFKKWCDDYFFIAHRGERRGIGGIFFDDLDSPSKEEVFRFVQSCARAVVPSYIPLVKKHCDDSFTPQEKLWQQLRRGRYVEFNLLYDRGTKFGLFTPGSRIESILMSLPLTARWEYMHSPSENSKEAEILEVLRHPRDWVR
Method: (§1) In vitro covalent fragment treatment for isoTOP-ABPP. All compounds were made up as solutions in DMSO (100×) and were used at a final concentration of 50 μM for activated esters and 100 μM for guanidinylating agents. For each profiling sample, 0.5 ml of lysate was treated with 5 μl of the 100× compound stock solution or 5 μl of DMSO. Samples were treated with activated esters for
(§2) STP-alkyne labeling and click chemistry. For concentration-dependent reactivity measurements by isoTOP-ABPP, 0.5 ml proteome aliquots were treated at ambient temperature with 1 mM STP-alkyne 1 (5 μl of 100 mM stock in DMSO) and 0.1 mM STP alkyne 1 (5 μl of 10 mM stock in DMSO), respectively. For competitive isoTOP-ABPP, after in vitro fragment treatment (detailed above), the samples were labeled for 1 h at ambient temperature with 0.1 mM STP-alkyne 1 (5 μl of 10 mM stock in DMSO). Samples were conjugated by copper-mediated azide-alkyne cycloaddition (CuAAC) to either the light (1 mM STP-alkyne or fragment treated) or heavy (0.1 mM STP-alkyne or DMSO treated) TEV tags (10 μl of 5 mM stocks in DMSO, final concentration=100 μM) using tris(2-carboxyethyl)phosphine hydrochloride
(§3) R value calculation and processing. The ratios of light and heavy MS1 peaks for each unique peptide were quantified with a CIMAGE software using default parameters (3 MS1 acquisitions per peak and signal to noise threshold set to 2.5). For reactivity measurements by isoTOP-ABPP, the R value was calculated from the ratio of MS1 peak areas, comparing the 1 mM STP alkyne sample (light TEV tag) with the 0.1 mM STP alkyne sample (heavy TEV tag). For competitive isoTOP-ABPP, the R value was calculated from the ratio of MS1 peak areas, comparing the DMSO treated sample (heavy TEV tag) with the compound treated sample (light TEV tag). […] Ratios for unique peptide entries are calculated for each experiment; overlapping peptides with the same modified lysine (for example, different charge states, MudPIT chromatographic steps or tryptic termini) are grouped together and the median ratio is reported as the final ratio (R). The peptide ratios reported by CIMAGE were further filtered to ensure the removal or correction of low-quality ratios in each individual data set. The quality filters applied were the following: removal of half tryptic peptides; for ratios with high standard deviations from the median (90% of the median or above) the lowest ratio was taken instead of the median; removal of peptides with R=20 and only a single MS2 event triggered during the elution of the parent ion; manual annotation of all the peptides with ratios of 20, removing any peptides with low quality elution profiles that remained after the previous curation steps (only done for competitive isoTOP-ABPP).
(§4) Cross-data processing for fragment screening. For compound treated samples, biological replicates of the same condition were averaged, if the standard deviation was below 60% of the mean; otherwise, for lysines with at least one R value <4 for a particular compound, the lowest value of the ratio set was taken. For lysines, where all R values for a particular compound were ≥4, the average was reported. For peptides containing several possible modified lysines, the lysine with the highest number of quantification events was used for analysis and the remaining, redundant peptides were reported as alternative modification sites. Peptides included in the aggregate dataset (those used for further bioinformatics and statistical analyses) were required to have been quantified in 2 experiments for competitive isoTOP-ABPP. Lysines were categorized as liganded, if they had at least one ratio R≥4 (hit fragments). For liganded lysines with R=20 for all liganding events, lysines were required to have been quantified with R=20 in two separate experiments and were further required to have been quantified with R<20 in one additional experiment.

[2] = molecular target: T2, ECH1 Delta(3,5)-Delta(2,4)-dienoyl-CoA isomerase, mitochondrial (Homo sapiens, UniProt Q13011); parameters: key to isoTOP-ABPP reactivity ratio at lysine Q13011_K112: R = MS1 peak area ratio, DMSO (heavy) / compound-treated (light); capped at 20; settings: for R value (DMSO/fragment) for probe 1 labeling: Q13011_K112; for R value (DMSO/fragment) for probe 1 labeling / isoTOP-ABPP reactivity ratio at lysine Q13011_K112 / isoTOP-ABPP ratio (R) at liganded lysine Q13011_K112: 50 uM, in vitro; for R value (DMSO/fragment) for probe 1 labeling / isoTOP-ABPP reactivity ratio at lysine Q13011_K112: 231 sol; for isoTOP-ABPP ratio (R) at liganded lysine Q13011_K112: sol, 231
T2 construct: isoTOP-ABPP experiments performed in cell lysates (in vitro); endogenous in cells; host or cells: soluble proteome of human cancer cell lines (MDA-MB-231, Ramos, Jurkat)
T2 sequence (Q13011 34-328): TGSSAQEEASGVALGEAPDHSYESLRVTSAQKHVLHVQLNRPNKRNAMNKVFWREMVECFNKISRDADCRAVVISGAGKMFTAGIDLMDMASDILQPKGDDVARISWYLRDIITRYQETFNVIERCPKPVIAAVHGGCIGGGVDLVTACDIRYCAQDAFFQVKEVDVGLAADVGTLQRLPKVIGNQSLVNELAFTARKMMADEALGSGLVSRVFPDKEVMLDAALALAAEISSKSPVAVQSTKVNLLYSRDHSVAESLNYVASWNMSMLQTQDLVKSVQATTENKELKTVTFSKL
Method: as §1, §2, §3, §4

[3] = molecular target: T3, SRP54 Signal recognition particle 54 kDa protein (Homo sapiens, UniProt P61011); parameters: key to isoTOP-ABPP reactivity ratio at lysine P61011_K81: R = MS1 peak area ratio, DMSO (heavy) / compound-treated (light); capped at 20; settings: 50 uM, in vitro; for R value (DMSO/fragment) for probe 1 labeling: P61011_K81; for R value (DMSO/fragment) for probe 1 labeling / isoTOP-ABPP reactivity ratio at lysine P61011_K81: 231 sol
T3 construct: isoTOP-ABPP experiments performed in cell lysates (in vitro); endogenous in cells; host or cells: soluble proteome of human cancer cell lines (MDA-MB-231, Ramos, Jurkat)
Method: as §1, §2, §3, §4

T3 sequence (P61011 whole entry, the tested form may be a part): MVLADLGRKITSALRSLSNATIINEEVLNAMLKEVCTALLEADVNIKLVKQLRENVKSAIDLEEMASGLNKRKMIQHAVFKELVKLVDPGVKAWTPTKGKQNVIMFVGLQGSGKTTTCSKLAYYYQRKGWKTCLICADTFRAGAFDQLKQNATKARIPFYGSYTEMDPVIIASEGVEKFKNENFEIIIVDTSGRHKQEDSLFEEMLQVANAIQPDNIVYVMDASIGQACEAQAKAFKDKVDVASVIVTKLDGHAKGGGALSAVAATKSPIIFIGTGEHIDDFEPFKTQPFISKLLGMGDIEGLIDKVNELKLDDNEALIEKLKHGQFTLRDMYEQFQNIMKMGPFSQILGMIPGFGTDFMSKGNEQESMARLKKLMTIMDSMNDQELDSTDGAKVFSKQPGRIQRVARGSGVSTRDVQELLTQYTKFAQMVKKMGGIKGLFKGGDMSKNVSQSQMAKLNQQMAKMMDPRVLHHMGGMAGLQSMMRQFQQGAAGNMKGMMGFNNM

Structure (SMILES): O=C(CCc1cn(-c2ccccc2)nc1-c1ccccc1)Oc1ccc([N+](=O)[O-])cc1[N+](=O)[O-] [fragment 29, 2,4-Dinitrophenyl 3-(1,3-diphenyl-1H-pyrazol-4-yl)propanoate]
isoTOP-ABPP reactivity ratio at lysine P36551_K404 [1]: 18.1
isoTOP-ABPP reactivity ratio at lysine P61011_K81 [3]: 1.1
isoTOP-ABPP reactivity ratio at lysine Q13011_K112 [2]: 1.0

Structure (SMILES): O=C(Oc1ccc([N+](=O)[O-])cc1[N+](=O)[O-])C(c1ccccc1)c1ccccc1 [fragment 30, 2,4-Dinitrophenyl 2,2-diphenylacetate]
isoTOP-ABPP reactivity ratio at lysine P36551_K404 [1]: 1.1
isoTOP-ABPP reactivity ratio at lysine P61011_K81 [3]: 20.0
isoTOP-ABPP reactivity ratio at lysine Q13011_K112 [2]: 0.9

Structure (SMILES): O=C(Oc1ccc([N+](=O)[O-])cc1[N+](=O)[O-])c1cc(C(F)(F)F)cc(C(F)(F)F)c1 [fragment 31, 2,4-Dinitrophenyl 3,5-bis(trifluoromethyl)benzoate]
isoTOP-ABPP reactivity ratio at lysine P36551_K404 [1]: 1.1
isoTOP-ABPP reactivity ratio at lysine P61011_K81 [3]: 0.9
isoTOP-ABPP reactivity ratio at lysine Q13011_K112 [2]: 1.2

Structure (SMILES): Cn1cc(CC(=O)Oc2ccc([N+](=O)[O-])cc2[N+](=O)[O-])c2ccccc21 [fragment 32, 2,4-Dinitrophenyl 2-(1-methyl-1H-indol-3-yl)acetate]
isoTOP-ABPP reactivity ratio at lysine P36551_K404 [1]: 1.0
isoTOP-ABPP reactivity ratio at lysine P61011_K81 [3]: 20.0
isoTOP-ABPP reactivity ratio at lysine Q13011_K112 [2]: 1.0

Structure (SMILES): COc1cc(CCC(=O)Oc2ccc([N+](=O)[O-])cc2[N+](=O)[O-])cc(OC)c1OC [fragment 33, 2,4-Dinitrophenyl 3-(3,4,5-trimethoxyphenyl)propanoate]
isoTOP-ABPP reactivity ratio at lysine P36551_K404 [1]: 1.0
isoTOP-ABPP reactivity ratio at lysine P61011_K81 [3]: 1.3
isoTOP-ABPP reactivity ratio at lysine Q13011_K112 [2]: 0.9

Structure (SMILES): O=C(Oc1ccc([N+](=O)[O-])cc1[N+](=O)[O-])C1CCN(C(=O)OCc2ccccc2)CC1 [fragment 34, 1-Benzyl 4-(2,4-dinitrophenyl) piperidine-1,4-dicarboxylate]
isoTOP-ABPP ratio (R) at liganded lysine P36551_K404 [1]: 1.1
isoTOP-ABPP ratio (R) at liganded lysine P61011_K81 ([3]; sol, 231): 0.8
isoTOP-ABPP ratio (R) at liganded lysine Q13011_K112 [2]: 1.1

Structure (SMILES): O=C(CC12CC3CC(CC(C3)C1)C2)Oc1ccc([N+](=O)[O-])cc1[N+](=O)[O-] [fragment 38, 2,4-Dinitrophenyl 2-(adamantan-1-yl)acetate]
isoTOP-ABPP ratio (R) at liganded lysine P36551_K404 [1]: 1.0
isoTOP-ABPP ratio (R) at liganded lysine Q13011_K112 [2]: 0.9

Structure (SMILES): O=C(Oc1ccc([N+](=O)[O-])cc1[N+](=O)[O-])c1ccccc1Nc1cccc(C(F)(F)F)c1 [fragment 40, 2,4-Dinitrophenyl 2-((3-(trifluoromethyl)phenyl)amino)benzoate]
isoTOP-ABPP ratio (R) at liganded lysine P36551_K404 [1]: 1.8
isoTOP-ABPP ratio (R) at liganded lysine Q13011_K112 [2]: 1.0

Structure (SMILES): CC(C)(C)OC(=O)N=C(NC(=O)OC(C)(C)C)n1cccn1 [fragment 50, reference compound]
isoTOP-ABPP ratio, lysine P36551_K404 ([1]; 100 uM_231_sol_in vitro): 1.8
isoTOP-ABPP ratio, lysine Q13011_K112 ([2]; 100 uM_231_sol_in vitro): 1.3

Next, values leading:

R value (DMSO/fragment) for probe 1 labeling [1]: 10.8
R value (DMSO/fragment) for probe 1 labeling [2]: 4.7
Structure (SMILES): O=C(CCc1cn(-c2ccccc2)nc1-c1ccccc1)Oc1c(F)c(F)c(F)c(F)c1F [fragment 19, Pentafluorophenyl 3-(1,3-diphenyl-1H-pyrazol-4-yl)propanoate]

R value (DMSO/fragment) for probe 1 labeling [1]: 1.1
R value (DMSO/fragment) for probe 1 labeling [3]: 1.0
R value (DMSO/fragment) for probe 1 labeling [2]: 1.4
Structure (SMILES): O=C(Oc1c(F)c(F)c(F)c(F)c1F)C(c1ccccc1)c1ccccc1 [fragment 20, Pentafluorophenyl 2,2-diphenylacetate]

R value (DMSO/fragment) for probe 1 labeling [1]: 1.0
R value (DMSO/fragment) for probe 1 labeling [3]: 0.7
R value (DMSO/fragment) for probe 1 labeling [2]: 1.5
Structure (SMILES): O=C(Oc1c(F)c(F)c(F)c(F)c1F)c1cc(C(F)(F)F)cc(C(F)(F)F)c1 [fragment 21, Pentafluorophenyl 3,5-bis(trifluoromethyl)benzoate]

R value (DMSO/fragment) for probe 1 labeling [1]: 1.1
R value (DMSO/fragment) for probe 1 labeling [3]: 0.9
R value (DMSO/fragment) for probe 1 labeling [2]: 1.5
Structure (SMILES): Cn1cc(CC(=O)Oc2c(F)c(F)c(F)c(F)c2F)c2ccccc21 [fragment 22, Pentafluorophenyl 2-(1-methyl-1H-indol-3-yl)acetate]

R value (DMSO/fragment) for probe 1 labeling [1]: 1.3
R value (DMSO/fragment) for probe 1 labeling [2]: 4.7
Structure (SMILES): COc1cc(CCC(=O)Oc2c(F)c(F)c(F)c(F)c2F)cc(OC)c1OC [fragment 23, Pentafluorophenyl 3-(3,4,5-trimethoxyphenyl)propanoate]

isoTOP-ABPP reactivity ratio at lysine P36551_K404 [1]: 1.2
Structure (SMILES): O=C(Oc1c(F)c(F)c(F)c(F)c1F)C1CCN(C(=O)OCc2ccccc2)CC1 [fragment 24, 1-Benzyl 4-(pentafluorophenyl) piperidine-1,4-dicarboxylate]

isoTOP-ABPP reactivity ratio at lysine P36551_K404 [1]: 1.3
isoTOP-ABPP reactivity ratio at lysine P61011_K81 [3]: 0.8
isoTOP-ABPP reactivity ratio at lysine Q13011_K112 [2]: 2.7
Structure (SMILES): O=C(Oc1c(F)c(F)c(F)c(F)c1F)c1ccc2ccccc2n1 [fragment 25, Pentafluorophenyl quinoline-2-carboxylate]

isoTOP-ABPP reactivity ratio at lysine P36551_K404 [1]: 1.1
isoTOP-ABPP reactivity ratio at lysine P61011_K81 [3]: 1.0
Structure (SMILES): O=C(CCc1coc2cc(F)ccc2c1=O)Oc1c(F)c(F)c(F)c(F)c1F [fragment 26, Pentafluorophenyl 3-(7-fluoro-4-oxo-4H-chromen-3-yl)propanoate]

isoTOP-ABPP reactivity ratio at lysine P36551_K404 [1]: 1.2
isoTOP-ABPP reactivity ratio at lysine Q13011_K112 [2]: 2.7
Structure (SMILES): O=C(CN1C(=O)c2ccccc2C1=O)Oc1c(F)c(F)c(F)c(F)c1F [fragment 27, Pentafluorophenyl 2-(1,3-dioxoisoindolin-2-yl)acetate]

isoTOP-ABPP reactivity ratio at lysine P36551_K404 [1]: 0.9
isoTOP-ABPP reactivity ratio at lysine P61011_K81 [3]: 0.8
isoTOP-ABPP reactivity ratio at lysine Q13011_K112 [2]: 1.8
Structure (SMILES): CCn1cc(C(=O)Oc2c(F)c(F)c(F)c(F)c2F)c(=O)c2ccc(C)nc21 [fragment 28, Pentafluorophenyl 1-ethyl-7-methyl-4-oxo-1,4-dihydro-1,8-naphthyridine-3-carboxylate]
